Experimental data taken from PubChem BioAssay AID2060336 (Molecular Pharmacology Branch, DTP, NCI, 2025).

System: 958767-090-R-J1-PDC spheroid growth
Test: Anticancer human tumor 958767-090-R-J1-PDC patient-derived head and neck squamous carcinoma cell line growth inhibition [IpAb]
Details: spheroids with HUVEC and MSC; for IC50: curve of first compound; for viability, T/C: stronger effect = lower value
Method in brief: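 Spheroids of 60% malignant cells, 25% HUVEC and 15% MSC were exposed to targeted agents combined with ipatasertib or abemaciclib. Doses started at or near clinical Cmax (10 microM when unknown) and fell in half-log steps.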

[1] = second compound 0.01 µM, first compound 0.0316 µM
[2] = second compound 0.01 µM, first compound 0.1 µM
[3] = second compound 0.01 µM, first compound 0.316 µM
[4] = second compound 0.01 µM, first compound 1 µM
[5] = second compound 0.01 µM, first compound 3.16 µM
[6] = second compound 0.01 µM, first compound 10 µM
[7] = second compound 0.0316 µM, first compound 0.0316 µM
[8] = second compound 0.0316 µM, first compound 0.1 µM
[9] = second compound 0.0316 µM, first compound 0.316 µM
[10] = second compound 0.0316 µM, first compound 1 µM
[11] = second compound 0.0316 µM, first compound 3.16 µM
[12] = second compound 0.0316 µM, first compound 10 µM
[13] = second compound 0.1 µM, first compound 0.0316 µM
[14] = second compound 0.1 µM, first compound 0.1 µM
[15] = second compound 0.1 µM, first compound 0.316 µM
[16] = second compound 0.1 µM, first compound 1 µM
[17] = second compound 0.1 µM, first compound 3.16 µM
[18] = second compound 0.1 µM, first compound 10 µM
[19] = second compound 0.316 µM, first compound 0.0316 µM
[20] = second compound 0.316 µM, first compound 0.1 µM
[21] = second compound 0.316 µM, first compound 0.316 µM
[22] = second compound 0.316 µM, first compound 1 µM
[23] = second compound 0.316 µM, first compound 3.16 µM
[24] = second compound 0.316 µM, first compound 10 µM
[25] = second compound 1 µM, first compound 0.0316 µM
[26] = second compound 1 µM, first compound 0.1 µM
[27] = second compound 1 µM, first compound 0.316 µM
[28] = second compound 1 µM, first compound 1 µM
[29] = second compound 1 µM, first compound 3.16 µM
[30] = second compound 1 µM, first compound 10 µM
[31] = second compound 0.01 µM, first compound 0.00316 µM
[32] = second compound 0.01 µM, first compound 0.01 µM
[33] = second compound 0.0316 µM, first compound 0.00316 µM
[34] = second compound 0.0316 µM, first compound 0.01 µM
[35] = second compound 0.1 µM, first compound 0.00316 µM
[36] = second compound 0.1 µM, first compound 0.01 µM
[37] = second compound 0.316 µM, first compound 0.00316 µM
[38] = second compound 0.316 µM, first compound 0.01 µM
[39] = second compound 1 µM, first compound 0.00316 µM
[40] = second compound 1 µM, first compound 0.01 µM
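For viability, T/C in this document: 100% = DMSO vehicle control wells.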

Compound	IC50 (second compound 0.01 µM) [nM]	IC50 (second compound 0.0316 µM) [nM]	IC50 (second compound 0.1 µM) [nM]	IC50 (second compound 0.316 µM) [nM]	IC50 (second compound 1 µM) [nM]	viability, T/C [1] [%]	viability, T/C [2] [%]	viability, T/C [3] [%]	viability, T/C [4] [%]	viability, T/C [7] [%]	viability, T/C [8] [%]	viability, T/C [9] [%]	viability, T/C [10] [%]	viability, T/C [13] [%]	viability, T/C [14] [%]	viability, T/C [15] [%]	viability, T/C [19] [%]	viability, T/C [20] [%]	viability, T/C [25] [%]	viability, T/C [26] [%]	further results
C=CCn1c(=O)c2cnc(Nc3ccc(N4CCN(C)CC4)cc3)nc2n1-c1cccc(C(C)(C)O)n1 + CCN1CCN(Cc2ccc(Nc3ncc(F)c(-c4cc(F)c5nc(C)n(C(C)C)c5c4)n3)nc2)CC1	237	250	338	203	994	83.8	69.3	43	29	79.6	67.3	42.9	34.7	65.6	64	47.1	65	47.1	77.3	68.2	viability, T/C [5]: 26.7%; viability, T/C [6]: 21.3%; viability, T/C [11]: 25%; viability, T/C [12]: 21.5%; viability, T/C [16]: 40.1%; viability, T/C [17]: 31.9%; viability, T/C [18]: 19.7%; viability, T/C [21]: 44.1%; viability, T/C [22]: 46.7%; viability, T/C [23]: 33.2%; viability, T/C [24]: 21.5%; viability, T/C [27]: 52.3%; viability, T/C [28]: 55%; viability, T/C [29]: 42.8%; viability, T/C [30]: 34.3%
CC(C)n1nc(-c2ccc3oc(N)nc3c2)c2c(N)ncnc21 + CCN1CCN(Cc2ccc(Nc3ncc(F)c(-c4cc(F)c5nc(C)n(C(C)C)c5c4)n3)nc2)CC1	15.7	13.5	22.8	24.8	> 100	39.2	33.8	–	–	40.5	36.7	–	–	45.5	35.4	–	48.8	40	65.5	50.7	viability, T/C (second compound 0.01 µM, first compound 0.000316 µM): 91.4%; viability, T/C (second compound 0.01 µM, first compound 0.001 µM): 92.4%; viability, T/C [31]: 84.2%; viability, T/C [32]: 57.2%; viability, T/C (second compound 0.0316 µM, first compound 0.000316 µM): 79.5%; viability, T/C (second compound 0.0316 µM, first compound 0.001 µM): 80.5%; viability, T/C [33]: 82.6%; viability, T/C [34]: 54.1%; viability, T/C (second compound 0.1 µM, first compound 0.000316 µM): 68.7%; viability, T/C (second compound 0.1 µM, first compound 0.001 µM): 73.1%; viability, T/C [35]: 70.3%; viability, T/C [36]: 61.6%; viability, T/C (second compound 0.316 µM, first compound 0.000316 µM): 70.6%; viability, T/C (second compound 0.316 µM, first compound 0.001 µM): 56.9%; viability, T/C [37]: 66.1%; viability, T/C [38]: 54.1%; viability, T/C (second compound 1 µM, first compound 0.000316 µM): 78.3%; viability, T/C (second compound 1 µM, first compound 0.001 µM): 75.9%; viability, T/C [39]: 64.8%; viability, T/C [40]: 68.4%
CC1(C)CCC(CN2CCN(c3ccc(C(=O)NS(=O)(=O)c4ccc(NCC5CCOCC5)c([N+](=O)[O-])c4)c(Oc4cnc5[nH]ccc5c4)c3)CC2)=C(c2ccc(Cl)cc2)C1 + CCN1CCN(Cc2ccc(Nc3ncc(F)c(-c4cc(F)c5nc(C)n(C(C)C)c5c4)n3)nc2)CC1	5780	4930	4090	3890	4050	88.7	90.8	71.5	95.8	75.5	83.4	59.4	70.9	63.5	60.7	66.6	57	50.6	61.2	61.3	viability, T/C [5]: 121%; viability, T/C [6]: 10.4%; viability, T/C [11]: 102%; viability, T/C [12]: 5.08%; viability, T/C [16]: 50.3%; viability, T/C [17]: 70%; viability, T/C [18]: 7.55%; viability, T/C [21]: 57.2%; viability, T/C [22]: 57.2%; viability, T/C [23]: 79.2%; viability, T/C [24]: 3.5%; viability, T/C [27]: 59.8%; viability, T/C [28]: 59.6%; viability, T/C [29]: 70.9%; viability, T/C [30]: 4.55%
CCCS(=O)(=O)Nc1ccc(F)c(C(=O)c2c[nH]c3ncc(-c4ccc(Cl)cc4)cc23)c1F + CCN1CCN(Cc2ccc(Nc3ncc(F)c(-c4cc(F)c5nc(C)n(C(C)C)c5c4)n3)nc2)CC1	> 10000	9200	8260	> 10000	> 10000	93.1	93.6	91.4	93.7	88.5	93.2	92.1	73.6	83.3	82	82.9	66.1	54.8	89.5	78.6	viability, T/C [5]: 87.7%; viability, T/C [6]: 60.2%; viability, T/C [11]: 62%; viability, T/C [12]: 48.3%; viability, T/C [16]: 70.8%; viability, T/C [17]: 71.7%; viability, T/C [18]: 45.6%; viability, T/C [21]: 56.7%; viability, T/C [22]: 67.8%; viability, T/C [23]: 67.1%; viability, T/C [24]: 44.4%; viability, T/C [27]: 74.9%; viability, T/C [28]: 79.5%; viability, T/C [29]: 69.5%; viability, T/C [30]: 51.9%
COc1c(OCCCN2CCOCC2)ccc2c3n(c(=NC(=O)c4cnc(N)nc4)nc12)CCN3 + CCN1CCN(Cc2ccc(Nc3ncc(F)c(-c4cc(F)c5nc(C)n(C(C)C)c5c4)n3)nc2)CC1	7.95	8.66	< 3.16	4.34	13	31.5	12.7	6.31	3.91	28.5	17	5.97	5.05	22.5	15.9	7.66	22.9	19.4	37	26.9	viability, T/C [31]: 64.5%; viability, T/C [32]: 44.5%; viability, T/C [33]: 62.6%; viability, T/C [34]: 48.8%; viability, T/C [35]: 44.3%; viability, T/C [36]: 39.5%; viability, T/C [16]: 6.13%; viability, T/C [37]: 53%; viability, T/C [38]: 42.6%; viability, T/C [21]: 8.1%; viability, T/C [22]: 7.06%; viability, T/C [39]: 74.1%; viability, T/C [40]: 53.5%; viability, T/C [27]: 14.7%; viability, T/C [28]: 12.4%
